Measured values as given in ChEMBL document CHEMBL4118179, “Synthesis and biological evaluation of 6-hydroxyl C-aryl glucoside derivatives as novel sodium glucose co-transporter 2 (SGLT2) inhibitors” (Bioorg Med Chem Lett, 2018).

Experiments:
[1] = molecular target: T1, Sodium/glucose cotransporter 2 (Homo sapiens) (UniProt P31639); experiment: Inhibition of full-length human SGLT2 expressed in CHO cells assessed as decrease in [14C]-methyl alpha-D-glucopyranoside uptake at 0.5 uM after 1 hr by liquid scintillation counting method; type: cell-based
T1 sequence (whole entry): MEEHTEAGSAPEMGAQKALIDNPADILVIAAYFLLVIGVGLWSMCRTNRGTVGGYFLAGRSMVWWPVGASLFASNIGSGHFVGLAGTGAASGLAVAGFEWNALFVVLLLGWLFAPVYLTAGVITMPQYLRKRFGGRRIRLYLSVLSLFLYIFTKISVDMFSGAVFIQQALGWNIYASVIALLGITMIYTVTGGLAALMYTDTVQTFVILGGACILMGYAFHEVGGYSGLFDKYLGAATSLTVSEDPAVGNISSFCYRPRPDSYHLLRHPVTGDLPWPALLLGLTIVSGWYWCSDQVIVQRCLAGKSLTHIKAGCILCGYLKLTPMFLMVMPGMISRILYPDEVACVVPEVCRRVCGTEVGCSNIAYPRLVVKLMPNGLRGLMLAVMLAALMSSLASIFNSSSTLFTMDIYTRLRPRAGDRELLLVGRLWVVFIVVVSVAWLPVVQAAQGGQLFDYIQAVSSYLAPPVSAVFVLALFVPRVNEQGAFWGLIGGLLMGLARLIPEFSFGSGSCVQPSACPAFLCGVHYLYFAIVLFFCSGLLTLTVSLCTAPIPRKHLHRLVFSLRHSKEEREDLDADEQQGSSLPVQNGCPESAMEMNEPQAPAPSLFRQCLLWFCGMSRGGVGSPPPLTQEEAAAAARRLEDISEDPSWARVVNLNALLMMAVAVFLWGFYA

[2] = molecular target: T2, Sodium/glucose cotransporter 2 (Homo sapiens, UniProt P31639); experiment: Inhibition of full-length human SGLT2 expressed in CHO cells assessed as decrease in [14C]-methyl alpha-D-glucopyranoside uptake after 1 hr by liquid scintillation counting method; type: cell-based
T2 sequence (P31639 whole entry): T1 sequence (whole entry)

Row | inhibition [1] | IC50 [2] | Structure (SMILES)
1 | 1.8% |  | OC[C@H]1O[C@H]2c3cc(Cc4cc5ccccc5s4)ccc3O[C@H]2[C@@H](O)[C@@H]1O
2 | 89.7% | 1.03 nM | CCOc1ccc(Cc2cc([C@@H]3O[C@H](CO)[C@@H](O)[C@H](O)[C@H]3O)c(O)cc2Cl)cc1
3 | 19.3% |  | CCc1ccc(Cc2cc3c(cc2Cl)O[C@H]2[C@@H](O)[C@H](O)[C@@H](CO)O[C@@H]32)cc1
4 | 101% | 0.81 nM | Cc1ccc(Cc2cc([C@@H]3O[C@H](CO)[C@@H](O)[C@H](O)[C@H]3O)c(O)cc2Cl)cc1
5 | 100% | 0.63 nM | CCc1ccc(Cc2cc([C@@H]3O[C@H](CO)[C@@H](O)[C@H](O)[C@H]3O)c(O)cc2Cl)cc1
6 | 48.7% |  | OC[C@H]1O[C@H]2c3cc(Cc4cc5ccccc5s4)c(Cl)cc3O[C@H]2[C@@H](O)[C@@H]1O
7 | 8.6% |  | CCOc1ccc(Cc2cc3c(cc2Cl)O[C@H]2[C@@H](O)[C@H](O)[C@@H](CO)O[C@@H]32)cc1
8 | 97.5% |  | OC[C@H]1O[C@@H](c2cc(Cc3cc4ccccc4s3)c(Cl)cc2O)[C@H](O)[C@@H](O)[C@@H]1O
9 | 4.2% |  | Cc1ccc(Cc2cc3c(cc2Cl)O[C@H]2[C@@H](O)[C@H](O)[C@@H](CO)O[C@@H]32)cc1
10 | 104% | 12.2 nM | CCOc1ccc(Cc2ccc(O)c([C@@H]3O[C@H](CO)[C@@H](O)[C@H](O)[C@H]3O)c2)cc1
11 | 66.5% |  | CCOc1ccc(Cc2ccc3c(c2)[C@@H]2O[C@H](CO)[C@@H](O)[C@H](O)[C@@H]2O3)cc1
12 | 30.7% |  | COc1ccc(Cc2cc3c(cc2Cl)O[C@H]2[C@@H](O)[C@H](O)[C@@H](CO)O[C@@H]32)cc1
13 | 103% |  | CCOc1ccc(Cc2cc([C@@H]3O[C@H](CO)[C@@H](O)[C@H](O)[C@H]3O)ccc2Cl)cc1
14 | 106% | 1.08 nM | COc1ccc(Cc2cc([C@@H]3O[C@H](CO)[C@@H](O)[C@H](O)[C@H]3O)c(O)cc2Cl)cc1
15 | 103% |  | OC[C@H]1O[C@@H](c2cc(Cc3cc4ccccc4s3)ccc2O)[C@H](O)[C@@H](O)[C@@H]1O
